Measured values as given in ChEMBL document CHEMBL3046763 (J Pestic Sci, 2000).
≈ marks a conversion by molar mass, not a printed value.

Key:
[1] = Acute toxicity in po dosed Mus musculus ddY (mouse); format: organism-based; details: in vivo, read-out: LC50 (the source's name)
Spodoptera litura [2] = experiment: Insecticidal activity against Spodoptera litura assessed as mortality at 50 ppm by filter paper method; format: functional
Delphacodes [3] = experiment: Insecticidal activity against Delphacodes striatellus assessed as mortality at 10 ppm by test tube method; format: functional
Delphacodes [4] = experiment: Insecticidal activity against Delphacodes striatellus assessed as mortality at 50 ppm by test tube method; format: functional
Spodoptera litura [5] = experiment: Insecticidal activity against Spodoptera litura assessed as mortality by filter paper method; format: functional

Compound `CCOC(=O)CC(SP(=S)(OC)OC)C(=O)OCC` (stereo not given) [MALATHION] has an LD50 [1] of 347 mg/kg, a mortality at 50 ppm (Spodoptera litura [2]) of 100% and a mortality at 10 ppm (Delphacodes [3]) of 77%. For the same compound, the mortality at 50 ppm (Delphacodes [4]) was 100% and the LC50 (Spodoptera litura [5]) was 8.3 µg/mL (≈ 25.1 µM).
